The values below come from ChEMBL document CHEMBL1156654, “Antineoplastic agents. 552. Oxidation of combretastatin A-1: trapping the o-quinone intermediate considered the metabolic product of the corresponding phosphate prodrug” (2008).

Assay type in all cases: functional
The nature of test [1]: Antitumor activity against mouse MHEC5T cells xenografted in SCID mouse assessed as reduction in tumor blood flow at 100 mg/kg after 72 hrs. On the set-up: scale not given: the % may be the effect or the level left.
A short description of test [2]: Antitumor activity against mouse MHEC5T cells xenografted in SCID mouse assessed as reduction in tumor blood flow at 100 mg/kg after 24 hrs. Set-up: scale not given: the % may be the effect or the level left.
A short description of test [3]: Antitumor activity against mouse MHEC5T cells xenografted in SCID mouse assessed as reduction in tumor blood flow at 100 mg/kg after 1 hrs. Set-up: scale not given: the % may be the effect or the level left.
The test system of a further test is P388. The test can be described thus: Growth inhibition of mouse P388 cells. The note with it: read-out: ED50 (the source's name).

≈ marks a conversion by molar mass, not a printed value.

As to `COc1cc(/C=C\c2ccc(OC)c(OP(=O)([O-])[O-])c2OP(=O)([O-])[O-])cc(OC)c1OC.[Na+].[Na+].[Na+].[Na+]`, the Activity was 27% in test [1], 90% in test [2] and 50% in test [3].

In the case of `COc1cc2nc3c(/C=C\c4cc(OC)c(OC)c(OC)c4)ccc(OC)c3nc2cc1OC`, the EC50 with P388 is 0.2 µg/mL (≈ 0.432 µM).

As to `COc1cc(/C=C\c2ccc(OC)c3nc4ccccc4nc23)cc(OC)c1OC`, in the test with P388, the EC50 amounted to 0.2 µg/mL (≈ 0.497 µM).
